“Also recorded” adds a separate entry of the source. Read-outs that look alike come from different tables or passages of the source. Square brackets hold non-standard residues; d marks the D form. Dmt = Cc1cc(O)cc(C)c1C[C@H](N)C(=O)O; dNMeA = CN[C@H](C)C(=O)O; Sar = CNCC(=O)O
How the values were obtained:
[1] = test system: male C57Bl6 mice; test: hot water tail-flick test, tolerance after daily i.v. administration for 5 days; format: in vivo, mouse; details: for tolerance development after repetitive administration: daily for 5 days, i.v. (morphine i.p.), measured on day 5; for %MPE: ± SEM of 7-10 animals
Description: (§1) Nociceptive responses to thermally-induced pain were assessed by the hot water tail-flick test using male C57Bl6 mice. Animals (weighing 25-28 g) were maintained on a normal light-dark cycle and testing occurred during the light cycle. Mice were injected intravenously (i.v.) with the examined drug, dissolved in saline, at different doses. For the verification of drug-induced antinociceptive tolerance, the investigated compounds were administered (i.v.) once per day for 5 days (2 and 4 mg/kg for SBCHM01 and 4 mg/kg for both AN81 and BVD03) and the analgesic effect was measured on the first and the fifth day of the experiment. In each case (both acute and chronic treatment) the effect was measured over a minimum time period of 120 minutes. The antinociceptive effect was measured in triplicate at the following time points post-injection: 5, 15, 30, 60, 120 min (and 180 min for SBCHM01; due to the strong and long-lasting analgesic effect produced by AN81 (Figure 2C), there was no possibility to prolong the experiment, which - if prolonged - could in consequence cause major damage to the animal's tail, thus giving spurious nociceptive responses). Responses to thermal hot stimulus were assessed by the latency with which the mouse removed its tail from 55°C water. A cut-off time of 10 s was used in order to prevent tissue damage.
(§2) In order to compare the antinociceptive effect induced by the examined drugs, morphine was used as a standard reference.
(§3) Data are presented as means ± standard errors of the mean (SEM). All of the calculations and statistical analysis were performed using Prism 5.0 (Graph Pad Software, San Diego, CA, USA). The nociceptive scores were analyzed using a two-way Anova with Bonferroni's post hoc test. The p value (the value of probability) as well as inferential statistics - F test, which include information about the obtained magnitude or value of the test statistic and degrees of freedom, are represented.

[2] = test system: male CD1 mice; test: radiant heat tail-flick test after s.c. administration; format: in vivo, mouse
Description: as §2
In order to determine the duration of drug activity, s.c. drug administration into male CD1 mice (27-33 g; Charles River Laboratories, Sulzfeld, Germany) was performed. In addition to a thermal nociceptive stimulus, the alternative light beam-based tail-flick assay was performed using an UB 37360 Ugo Basile analgesiometer (Ugo Basile s.r.l., Varese, Italy). The reaction time required by the mouse to remove its tail due to the radiant heat was measured and defined as the tail-flick latency. A cut-off time of 10 s was used in order to minimize tissue damage. Tail-flick latencies were measured before (baseline) and after drug s.c. administration (30 min, 1 h, 2 h, 3 h, 4 h, 5 h, 6 h and 7 h), the antinociceptive effect was scored as a percentage of the maximal possible effect (% MPE), according to formula presented above. Drugs were dissolved in sterile physiological saline (0.9%) and were administered s.c. in a volume of 10 μl per 1 g body weight. The animal procedures were approved by the Austrian Ethical Committee on Animal Care and Use in line with international laws and policies.
as §3

[3] = test system: MOR; parameters: method as in PMID 21413804; details: GPI tissue bioassay; means of 3-6 experiments ± SEM; cited from earlier work
[4] = test system: male C57Bl6 mice; test: hot water tail-flick test, acute antinociception after i.v. administration; format: in vivo, mouse; details: for analgesic effect compared with morphine: morphine 4 mg/kg i.p.
Description: as §1, §2, §3

[5] = biological target: KOR; details: cited from earlier work
Description: Table 1 In vitro functional activities and affinities of opioid- and opioid-NK1 ligands | column: KOR Ki (nM)^e, f

[6] = biological target: DOR; parameters: method as in PMID 21413804; details: [^3H]DSLET, rat brain membrane; cited from earlier work
[7] = test system: DOR; parameters: method as in PMID 21413804; details: MVD tissue bioassay; means of 3-6 experiments ± SEM; cited from earlier work
[8] = test system: MOR/DOR; details: cited from earlier work
Description: (§4) The structure differs from BVD03 only in the amide nitrogen N-methyl group and side chain of the second residue in the peptide sequence (Figure 1). When an activity comparison is made between the two ...

[9] = biological target: MOR; parameters: method as in PMID 21413804; details: [^3H]DAMGO, rat brain membrane; cited from earlier work
[10] = cited from earlier work
Description: as §4

[11] = test system: MOR; test: forskolin-stimulated cAMP accumulation, MOR agonism; format: cell-based; details: BVD03 in comparison to BVD02, EC50 cAMP
[12] = biological target: DOR; details: [^3H]diprenorphine, HEK293 cells stably expressing DOR; cited from earlier work
Description: (§5) Table 1 In vitro functional activities and affinities of opioid- and opioid-NK1 ligands | column: DOR Ki (nM)^e, f || The potent antinociceptive effects of the investigated structures after peripheral administration indicate that all four peptidic compounds are able to cross the BBB. […] The observed effects are in agreement with earlier in vitro binding data obtained for these peptides (BVD02 ...

[13] = test system: MOR; test: MOR binding, displacement of [^3H]diprenorphine in HEK293 cells; details: BVD03 in comparison to BVD02, Ki
[14] = biological target: MOR; details: [^3H]diprenorphine, HEK293 cells stably expressing MOR; cited from earlier work
Description: as §5, with “MOR” for “DOR”

[15] = test system: MOR; details: forskolin-stimulated cAMP accumulation, agonist; cited from earlier work
Description: as §5, with “MOR EC50 (nM)^c, d” for “DOR Ki (nM)^e, f”

[16] = test system: DOR; details: forskolin-stimulated cAMP accumulation, agonist; cited from earlier work
Description: as §5, with “EC50 (nM)^c, d” for “Ki (nM)^e, f”

[17] = test system: DOR; test: DOR binding, displacement of [^3H]diprenorphine in HEK293 cells; details: BVD03 in comparison to BVD02, Ki
[18] = test system: male, Sprague-Dawley rats; details: TY005, rats; i.t. administration, paw withdrawal test; cited from earlier work
Description: Recently, Vanderah and coworkers reported the detailed in vivo evaluation of H-Tyr-D-Ala-Gly-Phe-Met-Pro-Leu-Trp-O-3',5'-Bn(CF3)2 (TY005) in several animal assays to define the role of this compound in thermal and tactile stimuli in uninjured, sham- and nerve-injured male, Sprague-Dawley rats. They observed that this compound was able to exert the desired dual activity in vivo. […] This is in contrast to the current study, where the hot water tail-flick assay served as a model for acute pain and in which the drug was injected intravenously. […] For a general clinical applicability, an important goal in pain research consists of the discovery and development of improved analgesic drugs which could be admi ...

[19] = i.v., 1 mg/kg, 30 min, ± SEM of 6-10 mice, p > 0.05 vs morphine
[20] = i.v., 0.5 mg/kg, 60 min, ± SEM of 6-10 mice, p > 0.05 vs morphine
[21] = [^3H]diprenorphine, HEK293 cells stably expressing KOR

CN1CC[C@]23c4c5ccc(O)c4O[C@H]2[C@@H](O)C=C[C@H]3[C@H]1C5 [morphine, reference compound]
tolerance development after repetitive administration [1]: mice had developed opioid-induced tolerance
potency at 180 min ([1]; day 1, SBCHM01 2 mg/kg i.v., morphine 4 mg/kg i.p.): decrease in potency is clearly visible
duration of analgesia ([2]; morphine s.c., more elevated doses relative to AN81): activity drops rapidly over time; also recorded: lost almost all activity over a time period of 2 hours

H-Dmt-D-Arg-Aba-Gly-NH2 [AN81]
EC50 [3]: 0.00032 ± 4e-05 µM
overall analgesic effect after systemic administration ([4]; compared among the peptides of the study): strongest analgesic effect
analgesic effect compared with morphine ([4]; i.v., 0.1 mg/kg, 15 min and 120 min): significantly lower analgesic effect
%MPE ([4]; i.v., 0.1 mg/kg, 2 h, ± SEM of 6-10 mice, p < 0.05 vs morphine): 61.2 ± 6.45%
%MPE [4, 19]: 95 ± 2.89%
%MPE ([4]; i.v., 4 mg/kg, 30 min, 6-10 mice, p > 0.05 vs morphine): 100%
analgesic effect compared with morphine ([4]; i.v., 4, 1 and 0.5 mg/kg, all time points, p > 0.05): no difference in the analgesic effect
Ki ([5]; [^3H]U69,593, guinea pig brain membrane): 0.118 ± 0.012 µM
tolerance compared to morphine ([1]; 5 days repetitive administration): markedly lower
tolerance development after repetitive administration [1]: leads to the development of tolerance; also recorded: partial preservation of analgesia observed after repetitive administration; also recorded: appeared to still induce the development of tolerance
%MPE ([1]; day 5, i.v., 4 mg/kg daily, last time point (120 min), p < 0.001): 15.83% ± 4.40
Ki [6]: 0.0006 ± 7e-05 µM
EC50 [7]: 0.00042 ± 2e-05 µM
in vitro agonist profile [8]: superagonist profile; also recorded: full MOR/DOR agonist with subnanomolar affinity and tissue bioactivity
duration of antinociception ([2]; abstract: very low doses (0.1 mg/kg)): up to 7 hours
%MPE ([2]; s.c., 1 mg/kg, 7 h, ± SEM of 5-6 mice): 38.4 ± 7.8%
time of peak antinociception ([2]; s.c., 0.2, 0.5 and 1 mg/kg, 5-6 mice): 1 h
duration of analgesia ([2]; s.c., 1, 0.5 and 0.2 mg/kg): up to 7 hours
Ki [9]: 0.00015 ± 2e-05 µM

H-Dmt-D-Arg-Phe-Lys-NH2 [Dmt^1-DALDA]
opioid analgesic potency [10]: potent opioid analgesic

H-Dmt-NMe-D-Ala-Aba-Gly-NH2 [BVD03]
%MPE ([4]; i.v., 0.25 mg/kg (similar at 4 and 0.5 mg/kg), 15 min): 35-40%
%MPE ([4]; i.v., 0.25 mg/kg, 2 h, maximum level, ± SEM of 6-10 mice): 57.48 ± 17.57%
%MPE [4, 20]: 88.41 ± 7.15%
%MPE ([4]; i.v., 0.5 mg/kg, 120 min, ± SEM of 6-10 mice, p > 0.05 vs morphine): 84.29 ± 6.46%
%MPE ([4]; i.v., 1 mg/kg, 60 min, ± SEM of 6-10 mice, p > 0.05 vs morphine): 89.21 ± 5.22%
%MPE ([4]; i.v., 1 mg/kg, 120 min, ± SEM of 6-10 mice, p > 0.05 vs morphine): 86.69 ± 5.52%
%MPE ([4]; i.v., 4 mg/kg, 60 min, ± SEM of 6-10 mice, p > 0.05 vs morphine): 68.78 ± 7.18%
%MPE ([4]; i.v., 4 mg/kg, 120 min, ± SEM, vs morphine: BVD03 p < 0.05, SBCHM01 p > 0.05): 50.06 ± 6.84%
antinociception after 2 hours ([4]; i.v., all doses except 0.25 mg/kg): drop in antinociception after 2 hours
Ki [5, 21]: > 1000 µM
factor of superior MOR potency vs BVD02 [11]: 45
Ki [12]: 0.005 ± 0.003 µM
tolerance development after repetitive administration [1]: leads to the development of tolerance
%MPE ([1]; day 1, i.v., 4 mg/kg, 1 h): 68.78 ± 7.18%
difference from morphine on first day ([1]; day 1, i.v., 4 mg/kg, 7-10 animals): significant differences (**p < 0.01) when compared to morphine
%MPE ([1]; day 5, i.v., 4 mg/kg daily, 60 min): 18.14 ± 6.84%
factor of superior MOR binding vs BVD02 [13]: 4
Ki [14]: 0.015 ± 0.002 µM
EC50 [15]: 0.00174 ± 0.00034 nM
EC50 [16]: 0.016 ± 0.009 nM
fold increase in DOR affinity vs BVD02 [17]: 26 fold

H-Tyr-D-Ala-Gly-Phe-Met-Pro-Leu-Trp-O-3',5'-Bn(CF3)2 [TY005, hybrid opioid-NK1 octapeptide ligand]
antihyperalgesic tolerance [18]: development of antihyperalgesic tolerance could be suppressed; also recorded: inhibition of antihyperalgesic tolerance; also recorded: able to attenuate tolerance development

H-[Dmt][dNMeA]F[Sar]-NH2 [BVD02, opioid tetrapeptide, "ring opened" analogue]
%MPE [4, 20]: 56.77 ± 13.57%
%MPE [4, 19]: 74.77 ± 13.63%
%MPE ([4]; i.v., 5 mg/kg, 15 min post-injection, 6-10 mice, unchanged within the next hour): 100%
%MPE ([4]; i.v., 5 mg/kg, 2 h, ± SEM of 6-10 mice, p > 0.05): 96 ± 4%
antinociceptive activity at 120 min compared to morphine ([4]; i.v., 1 and 0.5 mg/kg, 120 min, p < 0.001 vs morphine): dramatic reduction of activity
Ki [5, 21]: > 1000 µM
Ki [12]: 0.13 ± 0.005 µM
Ki [14]: 0.06 ± 0.003 µM
EC50 [15]: 0.079 ± 0.0065 nM
EC50 [16]: 4400 ± 500 nM
